The numbers were not newly measured in US20140329770A1, “Compositions Comprising Phytoestrogens Receptor Beta Agonists and Dietary Fibers for Chemopreventive Treatment of Sporadic Adenomatous Polyposis” (CM&D PHARMA LIMITED, priority 2011, published 2014), which cites them from elsewhere.

The subject of series [1] is rectal ACF. The settings on record: 6-months intervention, subjects at increased risk for CRC.
Series [2] deals with human SW480 CRC.

`CC(C)c1c(C(=O)Nc2ccccc2)c(-c2ccccc2)c(-c2ccc(F)cc2)n1CC[C@@H](O)C[C@@H](O)CC(=O)O` [atovarstastin]: in series [1], the “Reduction in rectal ACF numbers compared with maltodextrins” value is reported as “did not demonstrate significant reductions”.
Regarding `COc1cc(C2Oc3cc([C@H]4Oc5cc(O)cc(O)c5C(=O)[C@@H]4O)ccc3OC2CO)ccc1O` (stereo partly shown) [silybinin], in series [2] (feeding, nu/nu mice), the “Tumor growth of human SW480 CRC” value is “suppressed”. For the same compound, in series [2] (mouse, in vivo), the Toxicity result was “Without any apparent toxicity”.
Regarding `CC1=C(CC(=O)O)c2cc(F)ccc2/C1=C\c1ccc([S+](C)[O-])cc1` (stereo not shown) [sulindac], the “Reduction in rectal ACF numbers compared with maltodextrins” value in series [1] was “did not demonstrate significant reductions”.
